In ChEMBL document CHEMBL4390671, “FragLites-Minimal, Halogenated Fragments Displaying Pharmacophore Doublets. An Efficient Approach to Druggability Assessment and Hit Generation” (J Med Chem, 2019) one finds Kd and Activity data, which are given here for five compounds.

pKd: −log10 of the molar value. Calls of active or inactive are those of the source. The calls are words filed in the database; no cut-off is given here.

The target of assay [1] is T1, Cyclin-dependent kinase 2 (Homo sapiens, UniProt P24941). In words: Binding affinity to full-length human CDK2 expressed in Escherichia coli BL21 (DE3) pLysS cells by isothermal titration calorimetry. On the technique in general: ITC needs no label: the signal is the heat of the interaction.
The target of assay [2] is T1, Cyclin-dependent kinase 2. In words: Binding affinity to full-length human CDK2 expressed in Escherichia coli BL21 (DE3) pLysS cells at 1 to 5 mM by isothermal titration calorimetry.
Assay [3] deals with T1, Cyclin-dependent kinase 2. In words: Binding affinity to full-length human CDK2 expressed in Escherichia coli BL21 (DE3) pLysS cells at 5 mM by isothermal titration calorimetry.

What is called pKd is the negative decadic logarithm of the Kd, by convention in mol/L. In turn, `Nc1nc(I)c2nc[nH]c2n1` gave a pKd in assay [1] of 3.46.

Turning to `Nc1nc(Oc2cccc(CC(=O)O)c2)c2nc[nH]c2n1`, the outcome in assay [2] was inactive.

With `Nc1nc(-c2cccc(CC(=O)O)c2)c2nc[nH]c2n1`, in assay [1], the Activity result was “Dose-dependent effect” and the pKd is 4.30.

For `NS(=O)(=O)c1ccc(Br)cc1`, in assay [3], the result was inactive.

On to `Brc1cn[nH]c1`, for which the result in assay [3] was inactive.
